Source: the supplement of paper PMC10307832

These cell lines were tested with COC1=CC=C(C=C1)COC2=C(C=C(C=C2)CC3=CN=C(N=C3N)N)OC [GW-2580] + CCNC(=O)c1noc(-c2cc(C(C)C)c(O)cc2O)c1-c1ccc(CN2CCOCC2)cc1 [Luminespib] (partner 0.01 µM) (assay: relative viability (nuclei count vs DMSO), 5 days (fraction); higher = more cells survive). Settings: first compound 0.08 µM.
In short: (§1)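 Cells from lung cancer lines were seeded into 1536-well plates and, one day later, dosed by pin tool. Treatments were either a single drug or a fixed dose of an anchor drug with five library-drug doses (not always all listed) in √10 steps. After 5 days, nuclei were stained in a one-step fixation (final 0.05% Triton X-100, 1% formaldehyde, 1 ug/ml Hoechst) and counted on 4× images, and relative viability is the treated-to-vehicle nuclei ratio, as the median of duplicate plates.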

Cell Line	relative viability
NCI-H2170	0.827
NCI-H2405	0.727
HOP-62	1.02
LU99A	0.289
BEN	0.353
HARA	0.882
SW 900	0.17
NCI-H322M	0.868
LCLC-97TM1	0.771
A-427	1.1
NCI-H441	0.307
NCI-H1734	0.169
NCI-H460	0.0341
NCI-H2347	0.491
NCI-H1395	0.723
201T	1.04

Cell Line	relative viability
NCI-H1915	0.852
HCC-827	0.92
LXF-289	0.719
NCI-H23	0.226
NCI-H647	0.128
CAL-12T	0.335
NCI-H1651	0.877
EPLC-272H	0.274
NCI-H1355	0.816
NCI-H3122	0.0808
NCI-H1437	1.17
NCI-H1755	0.697
HCC-15	0.308
NCI-H1793	0.187
PC-14	0.144

Same assay, conditions: first compound 0.8 µM

Cell Line	relative viability
NCI-H2170	0.572
NCI-H2405	0.604
HOP-62	1.04
LU99A	0.241
BEN	0.332
HARA	0.801
SW 900	0.182
NCI-H322M	0.887
LCLC-97TM1	0.728
A-427	0.83
NCI-H441	0.621
NCI-H1734	0.171
NCI-H460	0.0427
NCI-H2347	0.656
NCI-H1395	0.665
201T	1.04

Cell Line	relative viability
NCI-H1915	1.12
HCC-827	0.762
LXF-289	0.732
NCI-H23	0.194
NCI-H647	0.323
CAL-12T	0.439
NCI-H1651	1.01
EPLC-272H	0.204
NCI-H1355	0.841
NCI-H3122	0.0609
NCI-H1437	1.16
NCI-H1755	0.401
HCC-15	0.296
NCI-H1793	0.238
PC-14	0.129

Same assay, conditions: first compound 2.53 µM

Cell Line	relative viability
NCI-H2170	0.851
NCI-H2405	0.671
HOP-62	0.91
LU99A	0.193
BEN	0.29
HARA	0.389
SW 900	0.161
NCI-H322M	0.805
LCLC-97TM1	0.799
A-427	0.927
NCI-H441	0.493
NCI-H1734	0.193
NCI-H460	0.0355
NCI-H2347	0.369
NCI-H1395	0.648
201T	1.08
NCI-H1915	0.429
HCC-827	0.508
LXF-289	0.684
NCI-H23	0.213
NCI-H647	0.136
CAL-12T	0.347
NCI-H1651	0.8
NCI-H1355	0.694
NCI-H3122	0.0868
NCI-H1437	1.05
NCI-H1755	0.332
HCC-15	0.436
NCI-H1793	0.162
PC-14	0.175

Same assay, conditions: first compound 8 µM

Cell Line	relative viability
NCI-H2170	0.594
NCI-H2405	0.586
HOP-62	0.917
LU99A	0.273
BEN	0.264
HARA	0.596
SW 900	0.146
NCI-H322M	0.903
LCLC-97TM1	0.694
A-427	0.798
NCI-H441	0.293
NCI-H1734	0.19
NCI-H460	0.0322
NCI-H2347	0.471
NCI-H1395	0.59
201T	0.988

Cell Line	relative viability
NCI-H1915	0.917
HCC-827	0.56
LXF-289	0.616
NCI-H23	0.191
NCI-H647	0.205
CAL-12T	0.575
NCI-H1651	0.823
EPLC-272H	0.243
NCI-H1355	0.669
NCI-H3122	0.0798
NCI-H1437	0.786
NCI-H1755	0.45
HCC-15	0.521
NCI-H1793	0.151
PC-14	0.131

These cell lines were tested with COC1=CC=C(C=C1)COC2=C(C=C(C=C2)CC3=CN=C(N=C3N)N)OC [GW-2580] + COc1cc2c(Oc3ccc(NC(=O)C4(C(=O)Nc5ccc(F)cc5)CC4)cc3F)ccnc2cc1OCCCN1CCOCC1 [Foretinib] (partner 0.25 µM) in the same assay as above. Settings: first compound 0.08 µM.
In short: as §1

Cell Line	relative viability
NCI-H2170	1.05
NCI-H2405	1.04
HOP-62	1.27
LU99A	0.834
BEN	0.61
HARA	1.06
SW 900	0.831
NCI-H322M	1.02
LCLC-97TM1	1.01
A-427	1.1
NCI-H441	1.03
NCI-H1734	0.894
NCI-H460	1.02
NCI-H2347	0.739
NCI-H1395	1.08
201T	1.09

Cell Line	relative viability
NCI-H1915	1.26
HCC-827	1.13
LXF-289	1.06
NCI-H23	1.23
NCI-H647	1.25
CAL-12T	1.2
NCI-H1651	0.958
EPLC-272H	0.73
NCI-H1355	1.04
NCI-H3122	1.07
NCI-H1437	1.38
NCI-H1755	1.02
HCC-15	1.06
NCI-H1793	0.694
PC-14	1.08

Same assay, conditions: first compound 0.8 µM

Cell Line	relative viability
NCI-H2170	0.957
NCI-H2405	1.08
HOP-62	1.25
LU99A	0.944
BEN	0.731
HARA	0.849
SW 900	0.905
NCI-H322M	1.06
LCLC-97TM1	0.961
A-427	1.14
NCI-H441	1.16
NCI-H1734	0.855
NCI-H460	1.09
NCI-H2347	0.885
NCI-H1395	0.934
201T	1.1

Cell Line	relative viability
NCI-H1915	0.768
HCC-827	1.02
LXF-289	0.99
NCI-H23	1.18
NCI-H647	1.16
CAL-12T	1.25
NCI-H1651	0.804
EPLC-272H	0.766
NCI-H1355	1.06
NCI-H3122	0.991
NCI-H1437	1.28
NCI-H1755	0.967
HCC-15	1.09
NCI-H1793	0.758
PC-14	1.07

Same assay, conditions: first compound 2.53 µM

Cell Line	relative viability
NCI-H2170	0.958
NCI-H2405	0.963
HOP-62	1.02
LU99A	0.724
BEN	0.406
HARA	1.03
SW 900	1.37
NCI-H322M	0.924
LCLC-97TM1	1.01
A-427	0.892
NCI-H441	1.06
NCI-H1734	0.783
NCI-H460	0.987
NCI-H2347	0.586
NCI-H1395	1
201T	1.24
NCI-H1915	1.12
HCC-827	1.02
LXF-289	0.957
NCI-H23	0.887
NCI-H647	1.13
CAL-12T	1.11
NCI-H1651	0.754
NCI-H1355	0.841
NCI-H3122	0.982
NCI-H1437	1.14
NCI-H1755	0.907
HCC-15	1.01
NCI-H1793	0.584
PC-14	0.924

Same assay, conditions: first compound 8 µM

Cell Line	relative viability
NCI-H2170	1.04
NCI-H2405	0.958
HOP-62	1.11
LU99A	0.881
BEN	0.674
HARA	0.676
SW 900	0.878
NCI-H322M	0.979
LCLC-97TM1	0.884
A-427	1.01
NCI-H441	1.1
NCI-H1734	0.717
NCI-H460	0.924
NCI-H2347	1.17
NCI-H1395	0.923
201T	1.13

Cell Line	relative viability
NCI-H1915	1.06
HCC-827	0.905
LXF-289	0.891
NCI-H23	0.907
NCI-H647	1.37
CAL-12T	1.06
NCI-H1651	0.745
EPLC-272H	0.605
NCI-H1355	0.923
NCI-H3122	0.961
NCI-H1437	0.91
NCI-H1755	0.679
HCC-15	0.958
NCI-H1793	0.58
PC-14	0.936

Each cell line was assayed with COC1=CC=C(C=C1)COC2=C(C=C(C=C2)CC3=CN=C(N=C3N)N)OC [GW-2580] + Cc1cc(Nc2cc(N3CCN(C)CC3)nc(Sc3ccc(NC(=O)C4CC4)cc3)n2)n[nH]1 [Tozasertib] (partner 0.1 µM) in the same assay as above. Settings: first compound 0.08 µM.
In short: as §1

Cell Line	relative viability
NCI-H2170	1.04
NCI-H2405	0.8
HOP-62	0.404
LU99A	0.27
BEN	0.684
HARA	0.111
SW 900	0.572
NCI-H322M	0.491
LCLC-97TM1	0.289
A-427	0.198
NCI-H441	0.698
NCI-H1734	0.25
NCI-H460	0.349
NCI-H2347	0.538
NCI-H1395	0.829
201T	0.998

Cell Line	relative viability
NCI-H1915	0.469
HCC-827	0.557
LXF-289	0.191
NCI-H23	0.418
NCI-H647	0.358
CAL-12T	0.422
NCI-H1651	0.763
EPLC-272H	0.321
NCI-H1355	0.532
NCI-H3122	0.549
NCI-H1437	0.412
NCI-H1755	0.545
HCC-15	0.489
NCI-H1793	0.379
PC-14	0.665

Same assay, conditions: first compound 0.8 µM

Cell Line	relative viability
NCI-H2170	0.816
NCI-H2405	0.726
HOP-62	0.374
LU99A	0.294
BEN	0.396
HARA	0.127
SW 900	0.559
NCI-H322M	0.553
LCLC-97TM1	0.161
A-427	0.208
NCI-H441	0.704
NCI-H1734	0.267
NCI-H460	0.394
NCI-H2347	0.745
NCI-H1395	0.805
201T	0.935

Cell Line	relative viability
NCI-H1915	0.44
HCC-827	0.469
LXF-289	0.188
NCI-H23	0.401
NCI-H647	0.218
CAL-12T	0.365
NCI-H1651	0.745
EPLC-272H	0.266
NCI-H1355	0.494
NCI-H3122	0.421
NCI-H1437	0.433
NCI-H1755	0.576
HCC-15	0.562
NCI-H1793	0.3
PC-14	0.68
